Source: ChEMBL document CHEMBL4842340, “Development of Cagrilintide, a Long-Acting Amylin Analogue” (J Med Chem, 2021)
In brackets after ≈: the same amount, converted by molar mass. *1 amine or outer side, *2 acyl side, *3 side chain or, on linkers, in order; H or OH if unused. Where a SMILES comes first, the peptide text is derived from it. Bridges are numbered along the chain shown (N, C = ends). The star is where a group is joined. C20 diacid = O=C(O)CCCCCCCCCCCCCCCCCCC(=O)*; γGlu = O=C(O)[C@H](CCC(=O)[*:2])N[*:1]

Key:
[1] = Solubility of the compound in bis-tris propane at pH 8 by UPLC analysis; assay type: physicochemical; details: bis-tris propane buffer
Insulin (Homo sapiens) [2] = biological target: Insulin (Homo sapiens) (UniProt P01308); experiment: Effect on insulin (unknown origin) amyloid fibril formation assessed as peptide recovery in HEPES buffer at pH 7.5 measured after 45 hrs by thioflavin-T fluorescence assay relative to control
[3] = Solubility of the compound in bis-tris propane at pH 6 by UPLC analysis; assay type: physicochemical; details: bis-tris propane buffer
Homo sapiens [4] = species on record: Homo sapiens; experiment: Ratio of EC50 for human calcitonin receptor expressed in BHK570 cells to EC50 for human AMY3R (CT+RAMP3) expressed in Hollex1 cells; assay type: cell-based
[5] = Agonist activity at human AMY3R (CT+RAMP3) expressed in Hollex1 cells incubated for 3 hrs by luminescence assay; assay type: cell-based; details: Hollex1, 3 h
Insulin (Homo sapiens) [6] = biological target: Insulin (Homo sapiens) (UniProt P01308); experiment: Effect on insulin (unknown origin) amyloid fibril formation assessed as lag time in HEPES buffer at pH 7.5 measured after 45 hrs by thioflavin-T fluorescence assay
Rattus norvegicus [7] = species on record: Rattus norvegicus; experiment: Ratio of EC50 for rat calcitonin receptor expressed in BHK-13 cells to EC50 for rat AMY3R (CT+RAMP3) expressed in tk-ts13 cells; assay type: cell-based
[8] = Solubility of the compound in lactate at pH 5 by UPLC analysis; assay type: physicochemical; details: lactate buffer
[9] = Agonist activity at human calcitonin receptor expressed in BHK570 cells assessed as increase in intracellular cAMP concentration incubated for 3 hrs in absence of albumin by CRE luciferase reporter gene assay; assay type: cell-based; details: BHK570, 3 h
[10] = Agonist activity at rat calcitonin receptor expressed in BHK-13 cells assessed as increase in intracellular cAMP concentration incubated for 25 mins by CRE luciferase reporter gene assay; assay type: cell-based; details: BHK-13, 25 min
[11] = Solubility of the compound in lactate at pH 3 by UPLC analysis; assay type: physicochemical; details: lactate buffer
Insulin (Homo sapiens) [12] = biological target: Insulin (Homo sapiens) (UniProt P01308); experiment: Effect on insulin (unknown origin) amyloid fibril formation assessed as peptide recovery in glycyl-glycine buffer at pH 4 measured after 45 hrs by thioflavin-T fluorescence assay relative to control; parameters: concentration or dose not given beside the values
[13] = Agonist activity at rat AMY3R (CT+RAMP3) expressed in tk-ts13 cells assessed as increase in intracellular cAMP level incuabted for 25 mins by CRE luciferase reporter gene assay; assay type: cell-based; details: tk-ts13, 25 min
[14] = Solubility of the compound in bis-tris propane at pH 6.5 by UPLC analysis; assay type: physicochemical; details: bis-tris propane buffer
Insulin (Homo sapiens) [15] = biological target: Insulin (Homo sapiens) (UniProt P01308); experiment: Effect on insulin (unknown origin) amyloid fibril formation assessed as lag time in glycyl-glycine buffer at pH 4 measured after 45 hrs by thioflavin-T fluorescence assay
[16] = Solubility of the compound in bis-tris propane at pH 7 by UPLC analysis; assay type: physicochemical; details: bis-tris propane buffer
[17] = Solubility of the compound in bis-tris propane at pH 7.5 by UPLC analysis; assay type: physicochemical; details: bis-tris propane buffer
Rattus norvegicus [18] = experiment: Reduction in food intake in Sprague-Dawley rat at 30 nmol/kg, sc administered as single dose measured after 24 to 48 hrs relative to control; assay type: functional; parameters: scale not given: the % may be the effect or the level left; details: time 24-48 hrs
Rattus norvegicus [19] = experiment: Reduction in food intake in Sprague-Dawley rat at 30 nmol/kg, sc administered as single dose measured upto 24 hrs relative to control; assay type: functional; parameters: scale not given: the % may be the effect or the level left; details: time hrs <=24
Rattus norvegicus [20] = experiment: Reduction in food intake in Sprague-Dawley rat at 3 nmol/kg, sc administered as single dose measured upto 24 hrs relative to control; assay type: functional; parameters: scale not given: the % may be the effect or the level left; details: time hrs <=24
[21] = Displacement of [125I]-calcitonin from human calcitonin receptor expressed in tk-ts 13 cells measured after 120 mins by scintillation proximity assay; assay type: cell-based; details: tk-ts13
Homo sapiens [22] = species on record: Homo sapiens; experiment: Ratio of IC50 for displacement of [125I]-calcitonin from human calcitonin receptor expressed in tk-ts 13 cells to IC50 for displacement of [125I]-amylin from human AMY3R (CTR+RAMP3) expressed in BHK-13 cells; assay type: cell-based
Rattus norvegicus [23] = experiment: Reduction in food intake in Sprague-Dawley rat at 3 nmol/kg, sc administered as single dose measured after 24 to 48 hrs relative to control; assay type: functional; parameters: scale not given: the % may be the effect or the level left; details: time 24-48 hrs
[24] = Displacement of [125I]-amylin from rat AMY3R (CTR+RAMP3) expressed in BHK-13 cells measured after 120 mins by scintillation proximity assay; assay type: cell-based
[25] = Displacement of [125I]-amylin from human AMY3R (CTR+RAMP3) expressed in BHK-13 cells measured after 120 mins by scintillation proximity assay; assay type: cell-based
Rattus norvegicus [26] = species on record: Rattus norvegicus; experiment: Ratio of IC50 for displacement of [125I]-calcitonin from rat calcitonin receptor expressed in tk-ts 13 cells to IC50 for displacement of [125I]-amylin from rat AMY3R (CTR+RAMP3) expressed in BHK-13 cells; assay type: cell-based
[27] = Displacement of [125I]-calcitonin from rat calcitonin receptor expressed in tk-ts 13 cells measured after 120 mins by scintillation proximity assay; assay type: cell-based; details: tk-ts13
[28] = Solubility of the compound in lactate at pH 4 by UPLC analysis; assay type: physicochemical; details: lactate buffer

Insulin (Homo sapiens), sequence (P01308 whole entry): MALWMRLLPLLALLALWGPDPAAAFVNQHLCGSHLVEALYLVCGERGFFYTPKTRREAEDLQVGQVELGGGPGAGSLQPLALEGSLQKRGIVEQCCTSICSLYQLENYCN

Row | Structure (SMILES) | solubility [1] [µM] | Activity (Insulin (Homo sapiens) [2]) [%] | solubility [3] [µM] | Ratio EC50 (Homo sapiens [4]) | EC50 [5] [nM] | TIME (Insulin (Homo sapiens) [6]) [h] | Ratio EC50 (Rattus norvegicus [7]) | solubility [8] [µM] | EC50 [9] [nM] | EC50 [10] [nM] | solubility [11] [µM] | Activity (Insulin (Homo sapiens) [12]) [%] | EC50 [13] [nM] | solubility [14] [µM] | TIME (Insulin (Homo sapiens) [15]) [h] | solubility [16] [µM] | solubility [17] [µM] | Activity (Rattus norvegicus [20]) [%] | IC50 [21] [nM] | Ratio IC50 (Homo sapiens [22]) | also measured
1 | CC[C@H](C)[C@H](NC(=O)[C@@H]1CCCN1C(=O)CNC(=O)[C@H](Cc1ccccc1)NC(=O)[C@H](CO)NC(=O)[C@H](CO)NC(=O)[C@H](CO)NC(=O)[C@H](CO)NC(=O)[C@H](CCCNC(=N)N)NC(=O)[C@H](Cc1cnc[nH]1)NC(=O)[C@H](CC(C)C)NC(=O)[C@H](Cc1ccccc1)NC(=O)[C@H](CCC(=O)O)NC(=O)[C@H](C)NC(=O)[C@H](CC(C)C)NC(=O)[C@H](CCCNC(=N)N)NC(=O)[C@H](CCC(N)=O)NC(=O)[C@@H](NC(=O)[C@H](C)NC(=O)[C@@H]1CSSC[C@H](NC(=O)[C@H](Cc2cnc[nH]2)NC(=O)CC[C@H](NC(=O)CCCCCCCCCCCCCCCCCCC(=O)O)C(=O)O)C(=O)N[C@@H](CC(N)=O)C(=O)N[C@@H]([C@@H](C)O)C(=O)N[C@@H](C)C(=O)N[C@@H]([C@@H](C)O)C(=O)N1)[C@@H](C)O)C(=O)N[C@@H](CC(C)C)C(=O)N1CCC[C@H]1C(=O)N1CCC[C@H]1C(=O)N[C@H](C(=O)N[C@@H](CC(=O)O)C(=O)N[C@H](C(=O)NCC(=O)N[C@@H](CO)C(=O)N[C@@H](CC(=O)O)C(=O)N[C@H](C(=O)N[C@@H](Cc1ccc(O)cc1)C(N)=O)[C@@H](C)O)C(C)C)[C@@H](C)O ({C20 diacid-γGlu}-HCNTATCATQRLAEFLHRSSSSFGPILPPTDVGSDTY-NH2; disulfide 2-7) | 200 (≈ 886 µg/mL) | 94 | 200 (≈ 886 µg/mL) | 1 | 0.166 | 45 | 6 | 5 (≈ 22.2 µg/mL) | 0.18 | 1.58 | 200 (≈ 886 µg/mL) | 57 | 0.278 | 200 (≈ 886 µg/mL) | 45 | 200 (≈ 886 µg/mL) | 200 (≈ 886 µg/mL) |  |  |  | 
2 | CC[C@H](C)[C@H](NC(=O)[C@@H]1CCCN1C(=O)CNC(=O)[C@H](Cc1ccccc1)NC(=O)[C@H](CC(N)=O)NC(=O)[C@H](CC(N)=O)NC(=O)[C@H](CO)NC(=O)[C@H](CO)NC(=O)[C@H](Cc1c[nH]cn1)NC(=O)[C@H](Cc1cnc[nH]1)NC(=O)[C@H](CC(C)C)NC(=O)[C@H](Cc1ccccc1)NC(=O)[C@H](CCC(=O)O)NC(=O)[C@H](C)NC(=O)[C@H](CC(C)C)NC(=O)[C@H](CCCNC(=N)N)NC(=O)[C@H](CCC(N)=O)NC(=O)[C@@H](NC(=O)[C@H](C)NC(=O)[C@@H]1CSSC[C@H](NC(=O)[C@H](CCCCN)NC(=O)CC[C@H](NC(=O)CCCCCCCCCCCCCCCCCCC(=O)O)C(=O)O)C(=O)N[C@@H](CC(N)=O)C(=O)N[C@@H]([C@@H](C)O)C(=O)N[C@@H](C)C(=O)N[C@@H]([C@@H](C)O)C(=O)N1)[C@@H](C)O)C(=O)N[C@@H](CC(C)C)C(=O)N1CCC[C@H]1C(=O)N1CCC[C@H]1C(=O)N[C@H](C(=O)N[C@@H](CC(N)=O)C(=O)N[C@H](C(=O)NCC(=O)N[C@@H](CO)C(=O)N[C@@H](Cc1cnc[nH]1)C(=O)N[C@H](C(=O)N[C@@H](Cc1ccc(O)cc1)C(N)=O)[C@@H](C)O)C(C)C)[C@@H](C)O ({C20 diacid-γGlu}-KCNTATCATQRLAEFLHHSSNNFGPILPPTNVGSHTY-NH2; disulfide 2-7) |  | 29 | 200 (≈ 896 µg/mL) | 1 | 0.145 | 1 | 3 | 200 (≈ 896 µg/mL) | 0.147 | 0.673 | 200 (≈ 896 µg/mL) | 91 | 0.246 |  | 37 | 103 (≈ 461 µg/mL) | 109 (≈ 488 µg/mL) | 58 | 1.12 | 1 | Activity (Rattus norvegicus [18]): 90%; Activity (Rattus norvegicus [19]): 88%; Activity (Rattus norvegicus [23]): 40%; IC50 [24]: 0.194 nM; IC50 [25]: 1.07 nM; Ratio IC50 (Rattus norvegicus [26]): 3; IC50 [27]: 0.666 nM; solubility [28]: 200 µM (≈ 896 µg/mL)
3 | CC[C@H](C)[C@H](NC(=O)[C@@H]1CCCN1C(=O)CNC(=O)[C@H](Cc1ccccc1)NC(=O)[C@H](CC(N)=O)NC(=O)[C@H](CC(N)=O)NC(=O)[C@H](CO)NC(=O)[C@H](CO)NC(=O)[C@H](Cc1c[nH]cn1)NC(=O)[C@H](Cc1cnc[nH]1)NC(=O)[C@H](CC(C)C)NC(=O)[C@H](Cc1ccccc1)NC(=O)[C@H](CCC(=O)O)NC(=O)[C@H](C)NC(=O)[C@H](CC(C)C)NC(=O)[C@H](CCCNC(=N)N)NC(=O)[C@H](CCC(N)=O)NC(=O)[C@@H](NC(=O)[C@H](C)NC(=O)[C@@H]1CSSC[C@H](NC(=O)[C@H](CCCCN)NC(=O)CC[C@H](NC(=O)CCCCCCCCCCCCCCCCCCC(=O)O)C(=O)O)C(=O)N[C@@H](CC(N)=O)C(=O)N[C@@H]([C@@H](C)O)C(=O)N[C@@H](C)C(=O)N[C@@H]([C@@H](C)O)C(=O)N1)[C@@H](C)O)C(=O)N[C@@H](CC(C)C)C(=O)N1CCC[C@H]1C(=O)N1CCC[C@H]1C(=O)N[C@H](C(=O)N[C@@H](CC(N)=O)C(=O)N[C@H](C(=O)NCC(=O)N[C@@H](CO)C(=O)N[C@@H](CC(N)=O)C(=O)N[C@H](C(=O)N1CCC[C@H]1C(N)=O)[C@@H](C)O)C(C)C)[C@@H](C)O ({C20 diacid-γGlu}-KCNTATCATQRLAEFLHHSSNNFGPILPPTNVGSNTP-NH2; disulfide 2-7) | 200 (≈ 878 µg/mL) | 19 | 200 (≈ 878 µg/mL) | 1 | 0.061 | 11 |  | 200 (≈ 878 µg/mL) | 0.052 | 0.076 | 200 (≈ 878 µg/mL) | 92 | 0.158 | 200 (≈ 878 µg/mL) | 45 | 200 (≈ 878 µg/mL) | 200 (≈ 878 µg/mL) | 62 | 0.115 | 1 | Activity (Rattus norvegicus [23]): 74%; IC50 [24]: 0.027 nM; IC50 [25]: 0.186 nM; Ratio IC50 (Rattus norvegicus [26]): 1; IC50 [27]: 0.018 nM; solubility [28]: 200 µM (≈ 878 µg/mL)
